The results in this text go back to ChEMBL document CHEMBL4699515, “Staprexanthones, Xanthone-Type Stimulators of Pancreatic β-Cell Proliferation from a Mangrove Endophytic Fungus” (J Nat Prod, 2020).

Series [1] deals with INS1(832/13). Put plainly: Induction of cell proliferation in rat INS-1 832/13 cells after 24 hrs by CCK8 assay. Type of series: functional, cell-based. For orientation: Formazan colour is commonly taken as a measure of viable cells.
The nature of series [2]: Induction of beta cells proliferation in 5 days post fertilize Tg(-1.2ins:H2BmCherry) zebra fish larvae assessed as beta cell number at 10 uM after 24 hrs by confocal microscopic method (reference value: 35 +/- 1). Type of series: functional, Danio rerio, Pancreatic beta cell.
Series [3] deals with Pancreatic beta cell. Kind of series: Induction of beta cells proliferation in 6 days post fertilize Tg(-1.2ins:H2BmCherry)/TgBAC(neurod1:eGFP) zebra fish larvae at 10 uM after 24 hrs by confocal microscopic method. In kind it is functional, tissue-based. The conditions noted are these: Danio rerio.
The test system of series [4] is Pancreatic beta cell. Kind of series: Induction of beta cells proliferation in 6 days post fertilize Tg(-1.2ins:H2BmCherry)/Tg(gcga:eGFP) zebra fish larvae at 10 uM after 24 hrs by confocal microscopic method. Type of series: functional. The conditions noted are these: Danio rerio.
A short description of series [5]: Induction of beta cells proliferation in 6 days post fertilize Tg(-1.2ins:H2BmCherry)Tg(ins:mAG-zGeminin(1/100)) zebra fish larvae assessed as number of replicated beta cells at 10 uM after 24 hrs by confocal microscopic method (reference value: 1.7 +/- 0.5). Type of series: functional, Danio rerio, Pancreatic beta cell.
Series [6] has as its system Pancreatic beta cell. Kind of series: Induction of beta cells proliferation in 6 days post fertilize Tg(-1.2ins:H2BmCherry)Tg(ins:mAG-zGeminin(1/100)) zebra fish larvae assessed as increase in total beta cells at 5 to 10 uM after 24 hrs by confocal microscopic method. Type of series: functional. Conditions: Danio rerio, dose microM 5-10, time 24.0 hrs.
The test system of series [7] is Pancreatic beta cell. Kind of series: Induction of beta cells proliferation in 6 days post fertilize Tg(-1.2ins:H2BmCherry)Tg(ins:mAG-zGeminin(1/100)) zebra fish larvae assessed as increase in beta cell proliferation at 5 to 10 uM after 24 hrs by confocal microscopic method. Type of series: functional. Conditions: Danio rerio, dose microM 5-10, time 24.0 hrs.
The test system of series [8] is Pancreatic beta cell. Put plainly: Induction of beta cells proliferation in 6 days post fertilize Tg(-1.2ins:H2BmCherry)Tg(ins:mAG-zGeminin(1/100)) zebra fish larvae assessed as increase in total beta cells at 25 to 50 uM after 24 hrs by confocal microscopic method. Type of series: functional, cell-based. Conditions: Danio rerio, dose microM 25-50, time 24.0 hrs.

In series [9] the test system is Pancreatic beta cell. Put plainly: Induction of beta cells proliferation in 6 days post fertilize Tg(-1.2ins:H2BmCherry)Tg(ins:mAG-zGeminin(1/100)) zebra fish larvae assessed as increase in beta cell proliferation at 25 to 50 uM after 24 hrs by confocal microscopic method. In kind it is functional. Conditions: Danio rerio, dose microM 25-50, time 24.0 hrs.
The nature of series [10]: Toxicity in 6 days post fertilize Tg(-1.2ins:H2BmCherry)Tg(ins:mAG-zGeminin(1/100)) zebra fish beta cells at 50 uM after 24 hrs by confocal microscopic method. In kind it is tissue-based, Danio rerio. Conditions: zebrafish, pancreatic beta cell.
Series [11] relates to INS1(832/13). Kind of series: Induction of cell cycle progression at G1/S transition in rat INS-1 832/13 cells assessed as increase in Cyclin E mRNA expression at 10 uM after 24 hs by qRT-PCR analysis. In kind it is functional, cell-based. Conditions: time 24.0 hrs. (In general: Real-time PCR tracks product formation cycle by cycle.)
In series [12] the test system is INS1(832/13). Kind of series: Induction of cell cycle progression at G1/S transition in rat INS-1 832/13 cells assessed as increase in Cdk 2 mRNA expression at 10 uM after 24 hs by qRT-PCR analysis. Type of series: functional, cell-based. Conditions: time 24.0 hrs.
Series [13] deals with INS1(832/13). Kind of series: Induction of cell cycle progression at G1/S transition in rat INS-1 832/13 cells assessed as increase in Cdk 4 mRNA expression at 10 uM after 24 hs by qRT-PCR analysis. Type of series: functional, cell-based. Conditions: time 24.0 hrs.
Series [14] deals with INS1(832/13). Kind of series: Induction of cell cycle progression at G1/S transition in rat INS-1 832/13 cells assessed as decrease in p21 mRNA expression at 10 uM after 24 hs by qRT-PCR analysis. Type of series: functional, cell-based. Conditions: time 24.0 hrs.
Series [15] has as its system INS1(832/13). Kind of series: Induction of cell cycle progression at G1/S transition in rat INS-1 832/13 cells assessed as decrease in p27 mRNA expression at 10 uM after 24 hs by qRT-PCR analysis. In kind it is functional, cell-based. The conditions noted are these: time 24.0 hrs.
In series [16] the test system is Pancreatic beta cell. Kind of series: Induction of beta cells proliferation in 6 days post fertilize Tg(-1.2ins:H2BmCherry)Tg(ins:mAG-zGeminin(1/100)) zebra fish larvae assessed as increase in total beta cells after 24 hrs by confocal microscopic method. Type of series: functional. The conditions noted are these: Danio rerio, dose microM 5-25, time 24.0 hrs.
Series [17] has as its system Pancreatic beta cell. Put plainly: Induction of beta cells proliferation in 6 days post fertilize Tg(-1.2ins:H2BmCherry)Tg(ins:mAG-zGeminin(1/100)) zebra fish larvae assessed as increase in beta cell proliferation after 24 hrs by confocal microscopic method. The conditions noted are these: Danio rerio, dose microM 5-25, time 24.0 hrs. In kind it is functional.
A short description of series [18]: Induction of beta cells proliferation in 6 days post fertilize Tg(-1.2ins:H2BmCherry)Tg(ins:mAG-zGeminin(1/100)) zebra fish larvae assessed as increase in beta cell proliferation at 25 uM after 24 hrs by confocal microscopic method relative to control. In kind it is functional, Danio rerio, Pancreatic beta cell.
For series [19], the system named is Pancreatic beta cell. Kind of series: Induction of beta cells proliferation in 6 days post fertilize Tg(-1.2ins:H2BmCherry)Tg(ins:mAG-zGeminin(1/100)) zebra fish larvae assessed as increase in beta cells at 50 uM after 24 hrs by confocal microscopic method relative to control. In kind it is functional. The conditions noted are these: Danio rerio.

Molecules are shown by their SMILES. Activity calls are given as the source filed them. The rule behind the calls is not given here.

As to `C=CC(C)(C)c1cc(CC=C(C)C)c(O)c2c(=O)c3c(CO)cc(C)cc3oc12`, the outcome in the series with INS1(832/13) [1], in the series with Pancreatic beta cell [3], in the series on Pancreatic beta cell [4], with INS1(832/13) [11], in the series with INS1(832/13) [12] and in the series on INS1(832/13) [13] was Active. For the same molecule, the outcome in the series on INS1(832/13) [14] and in the series on INS1(832/13) [15] was Active. Moreover, the Activity is 40 in series [2]; 4.3 in [5]; “Dose-dependent effect” in the series on Pancreatic beta cell [6]; “Dose-dependent effect” in the series with Pancreatic beta cell [7]; “Toxic” in series [10]. In addition, the result in the series on Pancreatic beta cell [8] and in the series with Pancreatic beta cell [9] was inactive.
As for `C=CC(C)(C)c1c(C)c(CC=C(C)C)c(O)c2c(=O)c3c(CO)cccc3oc12`, the outcome in the series on INS1(832/13) [1], in the series with Pancreatic beta cell [3], in the series with Pancreatic beta cell [4], in the series with INS1(832/13) [11], in the series on INS1(832/13) [12] and in the series on INS1(832/13) [13] was Active. Moreover, the outcome in the series on INS1(832/13) [14] and in the series with INS1(832/13) [15] was Active. The Activity in series [2] is 40; in [5], 3.6; in the series on Pancreatic beta cell [16] it was “Dose-dependent effect”; in the series with Pancreatic beta cell [17], “Dose-dependent effect”; in series [18], 10%; in series [10] it was “Toxic”. Moreover, in the series with Pancreatic beta cell [19], the outcome was inactive.
For `CC(C)=CCc1c(C)cc2oc3cccc(C4O[C@H](C)[C@@H](C)O4)c3c(=O)c2c1O`, the Activity in series [2] is reported as 39.
The same measure, in the same setting: the result for `C[C@]12C=CC(=O)C=C1CC[C@@H]1[C@@H]2[C@@H](O)C[C@@]2(C)[C@H]1CC[C@]2(O)C(=O)CO` [PREDNISOLONE] reads 40.
